# Measurements as given in paper PMC12040169 (PLOS Biology, 2025).
# Assay: in vitro
# Details: human, hela cells, % viability
row,Structure (SMILES),"viability at 28.5 h, 10 µM"
1,CC(C)CCC(C)NC(=O)c1ccc(Oc2ccc(F)cc2)cc1 (centres unmarked) [CBK295650],88.3%
2,Cc1c(-n2nnnc2SC(C)c2ccccc2)c(=O)n(-c2ccccc2)n1C (centres unmarked) [CBK295651],92.9%
3,CCC(C)NC(=O)c1ccccc1NS(=O)(=O)c1cc(C(=O)O)cs1 (centres unmarked) [CBK295652],108%
4,CC(C)(C)C(=O)NCc1ccc(C(=O)CSc2n[nH]c(=O)n2C2CC2)s1 [CBK295653],111%
5,O=C1NC(=O)C(CC(=O)N2CCN(Cc3nc4ccccc4s3)CC2)S1 (centres unmarked) [CBK295654],98.3%
6,O=C(O)c1csc(S(=O)(=O)Nc2ccccc2C(=O)Nc2ccc3c(c2)OCO3)c1 [CBK295655],102%
7,CCc1ccc(-c2noc(CSc3n[nH]c(=O)n3CCCOC)n2)cc1 [CBK295656],95.1%
8,O=C(c1ccc(Cl)cc1)c1ccc(OCC(=O)N2CCN(C(=O)c3ccco3)CC2)cc1 [CBK295658],89.2%
9,O=C(CSc1nnnn1-c1ccc(O)cc1)NC1CCCC1 [CBK295659],90.6%
10,CC(NC(=O)c1cn(-c2ccccc2)nc1-c1cccnc1)c1ccccn1 (centres unmarked) [CBK295660],105%
11,Cc1cc(C(=O)CN(C)S(=O)(=O)c2ccc(Cl)c(Cl)c2)c(C)n1C [CBK295661],102%
12,O=C(Nc1ccccc1C(=O)N1CCCC1)c1cc(=O)[nH]c2ccccc12 [CBK295664],99.2%
13,CCOc1ccc(NC(=O)C2CCC(C)(C(=O)O)C2(C)C)cc1 (centres unmarked) [CBK295665],106%
14,Cc1ccc(-c2n[nH]c(=S)n2CCC(=O)NC(C)c2ccc3c(c2)CCCC3)cc1 (centres unmarked) [CBK295666],90.1%
15,CN(C)c1ccc(C=C2CCCC3C2=NN(C(=O)CCC(=O)O)C3c2ccc(N(C)C)cc2)cc1 (centres unmarked) [CBK296065],86.8%
16,O=C(Cn1nnc2ccccc21)Nc1ccc(Cl)cn1 [CBK296068],97.9%
17,COc1ccc(C=C2CCCC3C2=NN(C(=O)CCC(=O)O)C3c2ccc(OC)c(OC)c2)cc1OC (centres unmarked) [CBK296070],107%
18,O=C(O)c1ccc(Nc2nc3ccccc3nc2NS(=O)(=O)c2ccc(Cl)cc2)cc1 [CBK296072],98.5%
19,O=C(O)CN1C(=O)C(=Cc2ccc(-c3ccc(Br)cc3)o2)SC1=S [CBK296075],92.2%
20,COc1ccc(-c2csc(NC(=O)c3ccccc3-c3ccccc3C(=O)O)n2)cc1 [CBK296076],88.6%
21,O=C(O)c1cc(NS(=O)(=O)c2ccc([N+](=O)[O-])cc2)ccc1O [CBK296077],110%

row,Structure (SMILES),"viability at 28.5 h, 10 µM"
1,Cc1ccc(S(=O)(=O)NC(=O)NCCCCNC(=O)NS(=O)(=O)c2ccc(C)cc2)cc1 [CBK296078],102%
2,O=C(O)Cc1csc(NC(=O)c2ccc(N3CCCCC3)c([N+](=O)[O-])c2)n1 [CBK296081],84.7%
3,Cc1cc(NC(c2cccc([N+](=O)[O-])c2)c2ccc3cccnc3c2O)no1 (centres unmarked) [CBK296083],89.1%
4,O=C(O)C=Cc1cn(-c2ccccc2)nc1-c1ccc(-c2ccc([N+](=O)[O-])cc2)o1 [CBK296088],105%
5,CCC(C)C(NC(=O)c1ccccc1NC(=O)c1ccc(OC)cc1)C(=O)O (centres unmarked) [CBK296090],91.4%
6,CN(C)c1ccc(C=Nc2ccc(NC(=O)CCC(=O)O)cc2)cc1 [CBK296091],92%
7,COc1ccc2cc(-c3cc(C(=O)O)c4ccccc4n3)ccc2c1 [CBK296093],88.4%
8,O=C(O)c1ccc(N2C(=O)C(=Cc3c4ccccc4cc4ccccc34)SC2=S)cc1 [CBK296101],85.9%
9,Cc1ccc(S(=O)(=O)NC(=O)Nc2cccc(NC(=O)NS(=O)(=O)c3ccc(C)cc3)n2)cc1 [CBK296102],103%
10,CCOc1cc(N2CCOCC2)c(OCC)cc1NC(=O)CSc1ccccc1C(=O)O [CBK296107],97.1%
11,Cc1noc(NS(=O)(=O)c2ccc(NC(=O)c3cc(-c4ccccc4Cl)nc4ccccc34)cc2)c1C [CBK296108],80.6%
12,Cc1ccc(C2=NN(c3ccccc3)C(c3cn(CCC(=O)O)nc3-c3ccccc3)C2)cc1 (centres unmarked) [CBK296110],107%
13,CCCCc1ccc(NS(=O)(=O)c2ccc(C)c(C(=O)O)c2)cc1 [CBK296111],116%
14,COc1ccc(-c2nn(-c3ccccc3)cc2C(=O)Nc2ccc(C(=O)O)cc2)cc1OC [CBK296112],95%
15,COc1ccc(-c2cc(C(=O)OCc3ccccn3)c3ccccc3n2)cc1 [CBK296114],108%
16,O=C(COC(=O)c1cc(-c2ccco2)nc2ccccc12)Nc1ccc(F)c(F)c1F [CBK296115],84.6%
17,COc1ccc(-c2csc(NC(=O)NS(=O)(=O)c3ccc(C)cc3)n2)cc1 [CBK296117],88%
18,COc1ccc(-c2nn(-c3ccccc3)cc2C(=O)Nc2ccc(C(=O)O)cc2)cc1 [CBK296121],106%
19,O=C(O)c1ccc(NC(=O)c2cn(-c3ccccc3)nc2-c2cccnc2)cc1 [CBK296122],102%
20,COc1ccc(C2=CC(c3ccc(C(F)(F)F)cc3)n3nnnc3N2)cc1OC (centres unmarked) [CBK296131],117%
21,COc1ccccc1N1CCN(C(=O)CC2(CC(=O)O)CCCC2)CC1 [CBK296137],105%

row,Structure (SMILES),"viability at 28.5 h, 10 µM"
1,O=C(O)CSCC(=O)N(Cc1ccccc1)c1nc(-c2ccccc2)c(-c2ccccc2)s1 [CBK296138],97.5%
2,COc1ccccc1NC(=O)C1=C(C)NC(SCC(=O)Nc2ccc(C(=O)O)cc2)=C(C#N)C1c1cccs1 (centres unmarked) [CBK296139],102%
3,CC(=O)NS(=O)(=O)c1ccc(NC(=O)CCSc2ccc(C)cc2)cc1 [CBK296141],88.5%
4,CN(C(=O)c1ccc2c(c1)NC(=O)CS2)c1ccccc1 [CBK296612],105%
5,CCN(CC)Cc1cc([N+](=O)[O-])cc2c1OCOC2 [CBK296613],113%
6,CC(=O)c1ccc(NC(=O)C(C)SCc2ccc(C)cc2)cc1 (centres unmarked) [CBK296616],96.7%
7,CC(=O)Nc1ccccc1OCc1cc(-c2ccccc2)on1 [CBK296617],99.8%
8,Cc1noc(C(C)C)c1C(=O)NC(C)c1cccc(Br)c1 (centres unmarked) [CBK296618],92.8%
9,CC(NC(=O)c1ccc(-n2cccc2)cc1)c1ccccn1 (centres unmarked) [CBK296619],91.4%
10,COc1cc(OC)c(NS(=O)(=O)c2ccc(C(=O)O)cc2)cc1Cl [CBK296620],97.5%
11,COc1ccc2c(-c3ccccc3)cc(=O)n(CCS(=O)(=O)Oc3ccccc3)c2c1 [CBK296621],84.6%
12,O=C(c1ccc(OC(F)(F)F)cc1)N1CCN(c2nnnn2-c2ccccc2)CC1 [CBK296622],93.5%
13,CCOC(=O)c1sc(NS(=O)(=O)c2ccc(C(=O)O)cc2)cc1C [CBK296623],100%
14,COc1ccc(COC(=O)C2CC(=O)N(Cc3ccc(C)cc3)C2)cc1 (centres unmarked) [CBK296624],89%
15,Cc1nc2c(cc(OCC(O)COc3ccc(C#N)cc3)c3ccsc32)s1 (centres unmarked) [CBK296632],84.6%
16,Cc1cccc(-c2n[nH]c(=S)n2CC(=O)Nc2cccc(C#Cc3ccccn3)c2)c1 [CBK296633],92.8%
17,COc1cccc(CC(=O)Nc2nc(Cc3n[nH]c(=S)n3C)cs2)c1 [CBK296634],98.5%
18,COc1cc(NC(=O)CC2(CC(=O)O)CCCCC2)ccc1N1CCCC1=O [CBK296637],105%
19,Cc1ccc(S(=O)(=O)Nc2cccc(NC(=O)c3ccco3)c2)cc1C(=O)O [CBK296638],105%
20,O=C(Nc1ccccc1C(=O)NCCCc1nc2ccccc2[nH]1)c1cccs1 [CBK296641],107%
21,CN(CCCn1c(=S)[nH]c2ccccc2c1=O)C1CCCCC1 [CBK296642],103%

row,Structure (SMILES),"viability at 28.5 h, 10 µM"
1,Cc1oc2nc(CSc3ccc4ccccc4c3)[nH]c(=O)c2c1C(=O)O [CBK296645],92.4%
2,CC(C)CCCC(C)NC(=O)COc1cc(C(=O)O)cc(C(=O)O)c1 (centres unmarked) [CBK296646],86.8%
3,Cc1nc2ccc(C(=O)N3CCN(C(=O)c4ccc(Cl)cc4)CC3)cc2nc1C [CBK296647],85%
4,CCOc1ccc(N2C(=O)CC(Nc3cc(C(=O)O)ccc3C)C2=O)cc1 (centres unmarked) [CBK296651],97.1%
5,CC(C)(C)C(=O)NCCCC(=O)Nc1nc2ccc(Oc3ccccc3)cc2s1 [CBK296652],97.9%
6,CCCCn1c(SCC(O)COCc2ccc(OC)c(OC)c2)n[nH]c1=O (centres unmarked) [CBK296653],99.3%
7,Cc1cc(CN2CCN(c3nc(-c4ccccc4)nc4ccccc34)CC2)no1 [CBK296654],87.7%
8,COc1ccc(NC(=O)CCSCCC(=O)O)cc1S(=O)(=O)N1CCCCC1 [CBK296655],80.3%
9,CC(=O)Nc1ccc(NC(=O)CCn2c(-c3cccc(C)c3)n[nH]c2=S)cc1Cl [CBK296656],99.3%
10,Cc1nc(C(=O)N(C)C(C)c2cc3ccccc3o2)nn1-c1ccc(F)cc1 (centres unmarked) [CBK296657],108%
11,O=C(O)c1ccc(S(=O)(=O)Nc2ccc(OC3CCCC3)cc2)cc1 [CBK296658],110%
12,O=C(CCNS(=O)(=O)c1ccccc1)OCc1ccc([N+](=O)[O-])cc1 [CBK296659],94.4%
13,CC(=O)c1ccc(C(=O)N(C)Cc2ccc(F)cc2)s1 [CBK296660],99.8%
14,CC12CCC(=O)N1C(C(=O)NCCNc1ccc(S(C)(=O)=O)cc1[N+](=O)[O-])CS2 (centres unmarked) [CBK296661],87.6%
15,O=C(Nc1cccc(-c2nnco2)c1)C1CCCCC1 [CBK296662],86.2%
16,CCN(CC)C(=O)c1cccc(NS(=O)(=O)c2ccc(C)c(C(=O)O)c2)c1 [CBK296665],111%
17,COc1cc(Cl)c(C)cc1NC(=O)C1CC=CCC1C(=O)O (centres unmarked) [CBK296667],94.1%
18,CC(C)(Oc1ccc(Cl)cc1)C(=O)Nc1ccc(CN2C(=O)CNC2=O)cc1 [CBK296668],103%
19,COc1ccccc1NS(=O)(=O)c1ccc(C)c(C(=O)NCC(c2ccco2)N2CCCCC2)c1 (centres unmarked) [CBK296669],81.3%

# Same assay, conditions: human, hela cells, % viability, bulk resorufin, single well
row,Structure (SMILES),"viability at 28.5 h, 10 µM"
1,O=C(O)C=CC(=O)Nc1ccc(SC(F)(F)C(F)(F)C(F)(F)F)cc1 [CBK296104],107%
